# Experimental data from US8933122B2, “Use of cationic surfactants as sporicidal agents” (Laboratorios Miret, S.A., priority 2008, dated 2015).
# Assays:
# [1] = system: Chaetonium globosum ATCC 6205; conditions: Fungi; cited from earlier work
# [2] = animals and humans; cited from earlier work
# [3] = human beings; cited from earlier work
# [4] = system: Enterobacter aerogenes CECT 689; conditions: Gram − Bacteria; cited from earlier work
# [5] = system: Bacillus subtilis ATCC 6633; conditions: Gram + Bacteria; cited from earlier work
# [6] = system: Aureobasidium pullulans ATCC 9348; conditions: Fungi; cited from earlier work
# [7] = system: Salmonella typhimurium ATCC16028; conditions: Gram − Bacteria; cited from earlier work
# [8] = system: Staphylococcus aureus ATCC 6538; conditions: Gram + Bacteria; cited from earlier work
# [9] = system: endospores from Bacillus subtilis ATCC 6633; test: Sporicidal activity, quantitative suspension test EN 13704:2002 (Example 1); assay type: cell-based; conditions: 20° C.; for Test of LAE sporicidal activity (Na), surviving spores count: 0.3% bovine serum albumin, N 1.8 × 10^7 cfu/mL
# Protocol: The determination of the sporicidal activity of LAE has been carried out according to the European standard EN 13704:2002 “Chemical disinfectant—Quantitative suspension test for the evaluation of sporicidal activity of chemical disinfectants used in food, industrial, domestic and institutional areas—Test method and requirements”.
# A test suspension containing endospores from Bacillus subtilis ATCC 6633 was prepared from a culture grown on a nutrient agar, to which additional sporulation enhancement ingredients were added. Plates were harvested with sterile water and endospores were purified by repeated centrifugations and resuspensions in water.
# Neutralizer. The neutralizer mixture consisted of 12.7% polysorbate 80, 6.0% Tamol® SN (brand of sodium salt of naphthalene-formaldehyde condensate), 1.7% lecithin, 1% peptone and 0.1% cystine. The solution was intended to neutralize any chemicals so that these would not affect subsequent growth of the bacteria.
# The sporicidal activity of a given product is defined by its capacity to reduce at least by 10^3 the amount of Bacillus subtilis bacterial spores in suspension, in the conditions established in the method.
# The product was in contact with a suspension of bacterial spores during an established period of time of 60 minutes. An interfering substance can be added to the suspension, in this case 0.3% bovine serum albumin in distilled water. Next, the effect of the product is neutralized by adding a neutralizer previously chosen, preceding to the surviving spores count.
# • 1. Spore suspension obtained from a spored-form culture of Bacillus subtilis. • 2. Count of the spore suspension of Bacillus subtilis. • 3. The possible toxic effect of the neutralizer on the spores in the absence of the product is valued. • 4. Evaluation of the neutralizing effect of the neutralizer over the product. • 4. Evaluation of the inhibitory effect of the product. • 5. Result calculation. Results: Results are expressed as the reduction of viability of the spore suspension in regards to:
# (§1) Tabulation of the Method and Test Validation Results (at 20° C.):
# The sporicidal activity is calculated as follows: R=N×0.1/Na N is cfu/mL of the spore suspension. Na is cfu/mL of the sporicidal activity. The calculated reduction of a solution of: • 50 ppm of LAE is R=3.5×10^2 cfu/mL • 100 ppm of LAE is R=3.4×10^2 cfu/mL • 150 ppm of LAE is R=4.3×10^2 cfu/mL • 250 ppm of LAE is R>10^3 cfu/mL
# A product is considered sporicidal if its use results in a reduction in the number of Bacillus subtilis bacterial spores equal or above 10^3 after being in contact for 60 minutes in the conditions set in […].
# [10] = system: Serratia marcenses CECT 274; conditions: Gram − Bacteria; cited from earlier work
# [11] = system: Escherichia coli ATCC 8739; conditions: Gram − Bacteria; cited from earlier work
# [12] = system: Aspergillus niger fungical spores; test: Fungicide activity, UNE-EN 1275 (Example 2); assay type: cell-based; conditions: 20° C.; for Test of LAE fungicide activity (Na), surviving spores count: N 5 × 10^7 cfu/mL
# Text: The determination of the fungicide activity of LAE has been carried out according to the European standard UNE-EN 1275: “Chemical disinfectant and antiseptic. Fungicide activity. Test method and requirements”.
# The fungicide activity of a given product is defined by its capacity to reduce at least by 10^4 the amount of Aspergillus niger fungical spores in suspension, in the conditions established in the method.
# The product is in contact with a suspension of fungical spores during an established period of time (60 minutes). After this time, the effect of the product is neutralized by adding Polysorbate 80 in water solution at 2%, preceding to the surviving spores count.
# • 1. Spore suspension obtained from a spored-form culture of Aspergillus niger. • 2. Count of the spore suspension of Aspergillus niger. • 3. The possible toxic effect of the neutralizer on the spores in the absence of the product is valued. • 4. Evaluation of the neutralizing effect of the neutralizer over the product. • 5. Evaluation of the fungicide effect of the product. • 6. Result calculation. Results:
# as §1
# Fungicide activity is calculated as follows: R=N×0.1/Na N cfu/mL of the fungical spore suspension Na cfu/mL of the fungicide activity The calculated reduction of a solution of: • 100 μg/mL of LAE is R=3.1×10^2 cfu/mL • 200 μg/mL of LAE is R=1.3×10^3 cfu/mL • 300 μg/mL of LAE is R=1.4×10^3 cfu/mL • 400 μg/mL of LAE is R=1.7×10^3 cfu/mL • 500 μg/mL of LAE is R>10^4 cfu/mL
# A product is considered fungicide if its use results in a reduction in the number of Aspergillus niger fungical spores equal to or above 10^4 after being in contact for 60 minutes in the conditions set in UNE-EN 1275.
# [13] = system: Proteus mirabilis CECT 170; conditions: Gram − Bacteria; cited from earlier work
# [14] = LAE 12.5 μg/mL, 60 minutes contact
# [15] = LAE 25 μg/mL, 60 minutes contact
# [16] = LAE 50 μg/mL, 60 minutes contact
# [17] = LAE 100 μg/mL, 60 minutes contact
# [18] = LAE 300 μg/mL, 60 minutes contact
smiles,measurement,setting,value
"CCCCCCCCCCCC(=O)N[C@@H](CCCN=C(N)N)C(=O)OCC.Cl [LAE, ethyl ester of the lauramide of the arginine monohydrochloride]",M.I.C.,[1],16 ppm
same,toxicological finding,[2],completely harmless to animals and humans
same,tolerability and toxicity in practical use,[3],well tolerated and to display a very low toxicity to human beings
same,M.I.C.,[4],32 ppm
same,M.I.C.,[5],16 ppm
same,M.I.C.,[6],16 ppm
same,M.I.C.,[7],32 ppm
same,M.I.C.,[8],32 ppm
same,calculated reduction R=N×0.1/Na,"[9]; 50 ppm of LAE, 60 minutes",3.5×10^2 cfu/mL
same,calculated reduction R=N×0.1/Na,"[9]; 100 ppm of LAE, 60 minutes",3.4×10^2 cfu/mL
same,calculated reduction R=N×0.1/Na,"[9]; 150 ppm of LAE, 60 minutes",4.3×10^2 cfu/mL
same,calculated reduction R=N×0.1/Na,"[9]; 250 ppm of LAE, 60 minutes",> 10^3 cfu/mL
same,concentration displaying sporicidal activity (reduction equal or above 10^3),"[9]; 60 minutes contact, EN 13704",≥ 250 ppm
same,LAE concentration from which there is inhibition of spore germination,[9]; 60 minutes,≥ 50 ppm
same,"Test of LAE sporicidal activity (Na), surviving spores count",[9]; [14],>300 cfu/mL
same,"Test of LAE sporicidal activity (Na), surviving spores count",[9]; [15],>300 cfu/mL
same,"Test of LAE sporicidal activity (Na), surviving spores count",[9]; [16],5.2 × 10^3 cfu/mL
same,"Test of LAE sporicidal activity (Na), surviving spores count",[9]; [17],5.3 × 10^3 cfu/mL
same,"Test of LAE sporicidal activity (Na), surviving spores count","[9]; LAE 150 μg/mL, 60 minutes contact",4.2 × 10^3 cfu/mL
same,"Test of LAE sporicidal activity (Na), surviving spores count","[9]; LAE 250 μg/mL, 60 minutes contact",No
same,"Test of LAE sporicidal activity (Na), surviving spores count",[9]; [18],No
same,M.I.C.,[10],32 ppm
same,M.I.C.,[11],32 ppm
same,calculated reduction R=N×0.1/Na,"[12]; 100 μg/mL of LAE, 60 minutes",3.1×10^2 cfu/mL
same,calculated reduction R=N×0.1/Na,"[12]; 200 μg/mL of LAE, 60 minutes",1.3×10^3 cfu/mL
same,calculated reduction R=N×0.1/Na,"[12]; 300 μg/mL of LAE, 60 minutes",1.4×10^3 cfu/mL
same,calculated reduction R=N×0.1/Na,"[12]; 400 μg/mL of LAE, 60 minutes",1.7×10^3 cfu/mL
same,calculated reduction R=N×0.1/Na,"[12]; 500 μg/mL of LAE, 60 minutes",> 10^4 cfu/mL
same,concentration at which fungicide active (reduction equal to or above 10^4),"[12]; 60 minutes contact, UNE-EN 1275",≥ 500 ppm
same,concentration from which a total inhibition of fungical spore germination has been observed,[12]; 60 minutes,≥ 500 ppm
same,concentration from which there is inhibition of fungical spore germination,[12]; 60 minutes,≥ 100 ppm
same,"Test of LAE fungicide activity (Na), surviving spores count",[12]; [14],>300 cfu/mL
same,"Test of LAE fungicide activity (Na), surviving spores count",[12]; [15],>300 cfu/mL
same,"Test of LAE fungicide activity (Na), surviving spores count",[12]; [16],>300 cfu/mL
same,"Test of LAE fungicide activity (Na), surviving spores count",[12]; [17],1.6 × 10^4 cfu/mL
same,"Test of LAE fungicide activity (Na), surviving spores count","[12]; LAE 200 μg/mL, 60 minutes contact",3.9 × 10^3 cfu/mL
same,"Test of LAE fungicide activity (Na), surviving spores count",[12]; [18],3.5 × 10^3 cfu/mL
same,"Test of LAE fungicide activity (Na), surviving spores count","[12]; LAE 400 μg/mL, 60 minutes contact",3.0 × 10^3 cfu/mL
same,"Test of LAE fungicide activity (Na), surviving spores count","[12]; LAE 500 μg/mL, 60 minutes contact",No
same,"Test of LAE fungicide activity (Na), surviving spores count","[12]; LAE 1000 μg/mL, 60 minutes contact",No
same,M.I.C.,[13],32 ppm
